Data taken from patent US10479780B2, “Aminopyrazole derivatives” (Chugai Seiyaku Kabushiki Kaisha, priority 2015, dated 2019).

Columns and labels:
Type in all cases: biochemical
human Lck enzyme = target: T1, human Lck enzyme (Homo sapiens, UniProt P06239); assay: Lck enzyme inhibitory activity (time-resolved fluorometry, biotinylated peptide phosphorylation); conditions: biotinylated peptide phosphorylation, read-out: LCK_IC50
T1 construct: purchased Carna Biosciences, Inc. 08-170
Procedure, shortened: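 Readout pairs a europium cryptate-labelled anti-phosphotyrosine antibody with XL665-streptavidin, measured by time-resolved fluorescence. IC50 derived from percent inhibition against untreated controls.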

human Yes1 enzyme = target: T2, human Yes1 enzyme (Homo sapiens, UniProt P07947); assay: Yes1 enzyme inhibitory activity (time-resolved fluorometry, biotinylated peptide phosphorylation); conditions: biotinylated peptide phosphorylation, read-out: YES_IC50
T2 construct: made in house
T2 sequence (P07947 whole entry): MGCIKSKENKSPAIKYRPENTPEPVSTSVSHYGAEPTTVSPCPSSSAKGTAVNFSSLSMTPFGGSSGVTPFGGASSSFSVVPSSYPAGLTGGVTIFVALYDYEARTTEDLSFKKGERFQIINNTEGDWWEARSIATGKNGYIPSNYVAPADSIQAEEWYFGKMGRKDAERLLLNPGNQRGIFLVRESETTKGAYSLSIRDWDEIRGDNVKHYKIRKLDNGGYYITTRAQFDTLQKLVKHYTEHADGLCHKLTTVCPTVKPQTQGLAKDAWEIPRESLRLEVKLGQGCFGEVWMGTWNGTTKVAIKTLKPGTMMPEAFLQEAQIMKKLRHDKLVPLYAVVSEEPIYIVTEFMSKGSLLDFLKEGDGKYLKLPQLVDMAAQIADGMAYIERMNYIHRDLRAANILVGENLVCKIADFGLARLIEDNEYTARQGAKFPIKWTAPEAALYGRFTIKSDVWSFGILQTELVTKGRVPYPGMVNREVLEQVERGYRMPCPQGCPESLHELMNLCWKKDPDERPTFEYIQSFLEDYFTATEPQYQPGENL
Procedure, shortened: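 Inhibition was expressed against a compound-free control to give IC50, using TR-FRET read-out (Eu-cryptate anti-pTyr antibody, streptavidin-XL665).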

human Src enzyme = target: T3, human Src enzyme (Homo sapiens, UniProt P12931); assay: Src enzyme inhibitory activity (time-resolved fluorometry, biotinylated peptide phosphorylation); conditions: biotinylated peptide phosphorylation, read-out: SRC_IC50
T3 construct: purchased Carna Biosciences, Inc. 08-173
T3 sequence (P12931 whole entry): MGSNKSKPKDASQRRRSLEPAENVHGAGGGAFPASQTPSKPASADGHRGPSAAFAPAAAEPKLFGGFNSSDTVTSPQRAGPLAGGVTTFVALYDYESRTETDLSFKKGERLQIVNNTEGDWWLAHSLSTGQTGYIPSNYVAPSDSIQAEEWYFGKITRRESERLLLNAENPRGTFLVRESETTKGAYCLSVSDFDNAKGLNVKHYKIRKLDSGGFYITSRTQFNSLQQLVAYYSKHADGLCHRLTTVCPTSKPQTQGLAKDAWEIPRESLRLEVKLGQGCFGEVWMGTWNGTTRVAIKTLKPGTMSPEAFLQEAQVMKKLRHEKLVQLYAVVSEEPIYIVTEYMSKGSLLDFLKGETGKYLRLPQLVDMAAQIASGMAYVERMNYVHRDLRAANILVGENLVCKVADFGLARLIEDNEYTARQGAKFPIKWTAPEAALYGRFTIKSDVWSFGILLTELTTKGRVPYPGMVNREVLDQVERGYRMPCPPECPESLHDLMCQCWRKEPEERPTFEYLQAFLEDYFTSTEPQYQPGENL
Procedure, shortened: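 Compounds were tested for blocking tyrosine phosphorylation of a biotinylated peptide substrate by recombinant human Src. Phosphorylated product was quantified by time-resolved fluorometry using europium cryptate and XL665 conjugates, and IC50 was calculated against the compound-free control.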

T1 sequence (P06239 whole entry): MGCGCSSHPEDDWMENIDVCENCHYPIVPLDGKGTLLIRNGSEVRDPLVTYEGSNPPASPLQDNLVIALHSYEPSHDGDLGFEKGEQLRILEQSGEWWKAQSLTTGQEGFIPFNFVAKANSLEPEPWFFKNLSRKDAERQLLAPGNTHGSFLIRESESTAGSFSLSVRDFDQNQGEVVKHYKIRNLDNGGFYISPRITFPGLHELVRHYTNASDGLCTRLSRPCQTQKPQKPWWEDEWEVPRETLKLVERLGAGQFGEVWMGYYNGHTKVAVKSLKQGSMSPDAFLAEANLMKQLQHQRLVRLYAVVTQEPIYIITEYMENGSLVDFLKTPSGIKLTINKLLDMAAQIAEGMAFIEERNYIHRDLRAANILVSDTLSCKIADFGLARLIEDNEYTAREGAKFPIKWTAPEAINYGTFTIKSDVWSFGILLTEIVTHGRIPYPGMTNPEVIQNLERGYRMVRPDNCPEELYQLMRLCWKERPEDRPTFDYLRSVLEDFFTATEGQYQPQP

| IC50 (human Lck enzyme) [nM] | IC50 (human Yes1 enzyme) [nM] | IC50 (human Src enzyme) [nM] | Structure (SMILES) |
| --- | --- | --- | --- |
| 240 | 19 | 970 | Cc1cc2cc(C(=O)c3cnn(-c4cnc(Oc5c(F)cccc5F)cc4C)c3N)[nH]c2cc1NS(=O)(=O)c1cccc(F)c1 [Example 5-1-551, N-[2-[5-amino-1-[6-(2,6-difluorophenoxy)-4-methylpyridin-3-yl]pyrazole-4-carbonyl]-5-methyl-1H-indol-6-yl]-3-fluorobenzenesulfonamide] |
| 130 | 5.4 | 830 | Cc1cc(Oc2ccccc2F)ccc1-n1ncc(C(=O)c2cc3cc(F)c(NS(=O)(=O)c4cccc(F)c4)cc3[nH]2)c1N [Example 5-1-552, N-[2-[5-amino-1-[4-(2-fluorophenoxy)-2-methylphenyl]pyrazole-4-carbonyl]-5-fluoro-1H-indol-6-yl]-3-fluorobenzenesulfonamide] |
| 370 | 17 | 1300 | Cc1cc(Oc2c(F)cccc2F)ncc1-n1ncc(C(=O)c2cc3cc(F)c(NS(=O)(=O)c4cccc(F)c4)cc3[nH]2)c1N [Example 5-1-553, N-[2-[5-amino-1-[6-(2,6-difluorophenoxy)-4-methylpyridin-3-yl]pyrazole-4-carbonyl]-5-fluoro-1H-indol-6-yl]-3-fluorobenzenesulfonamide] |
| 260 | 13 | 1500 | Cc1cc(Oc2ccccc2F)ncc1-n1ncc(C(=O)c2cc3cc(F)c(NS(=O)(=O)c4cccc(F)c4)cc3[nH]2)c1N [Example 5-1-554, N-[2-[5-amino-1-[6-(2-fluorophenoxy)-4-methylpyridin-3-yl]pyrazole-4-carbonyl]-5-fluoro-1H-indol-6-yl]-3-fluorobenzenesulfonamide] |
| 150 | 14 | 1200 | Cc1cc2cc(C(=O)c3cnn(-c4cnc(Oc5c(F)cccc5F)cc4C)c3N)[nH]c2cc1NS(=O)(=O)c1cccc(C#N)c1 [Example 5-1-555, N-[2-[5-amino-1-[6-(2,6-difluorophenoxy)-4-methylpyridin-3-yl]pyrazole-4-carbonyl]-5-methyl-1H-indol-6-yl]-3-cyanobenzenesulfonamide] |
| 150 | 8.8 | 1000 | Cc1cc(Oc2ccccc2F)ncc1-n1ncc(C(=O)c2cc3cc(F)c(NS(=O)(=O)c4cccc(C#N)c4)cc3[nH]2)c1N [Example 5-1-556, N-[2-[5-amino-1-[6-(2-fluorophenoxy)-4-methylpyridin-3-yl]pyrazole-4-carbonyl]-5-fluoro-1H-indol-6-yl]-3-cyanobenzenesulfonamide] |
| 320 | 19 | 1500 | Cc1cc2cc(C(=O)c3cnn(-c4cnc(Oc5c(F)cccc5F)cc4C)c3N)[nH]c2cc1NS(=O)(=O)c1cccc(Cl)c1 [Example 5-1-557, N-[2-[5-amino-1-[6-(2,6-difluorophenoxy)-4-methylpyridin-3-yl]pyrazole-4-carbonyl]-5-methyl-1H-indol-6-yl]-3-chlorobenzenesulfonamide] |
| 230 | 4.9 | 1500 | Cc1cc(Oc2ccccc2F)ccc1-n1ncc(C(=O)c2cc3cc(F)c(NS(=O)(=O)c4cccc(Cl)c4)cc3[nH]2)c1N [Example 5-1-558, N-[2-[5-amino-1-[4-(2-fluorophenoxy)-2-methylphenyl]pyrazole-4-carbonyl]-5-fluoro-1H-indol-6-yl]-3-chlorobenzenesulfonamide] |

Continued, compound first:

| Structure (SMILES) | IC50 (human Lck enzyme) [nM] | IC50 (human Yes1 enzyme) [nM] | IC50 (human Src enzyme) [nM] |
| --- | --- | --- | --- |
| Cc1cc(Oc2ccccc2F)ccc1-n1ncc(C(=O)c2cc3cc(F)c(NS(=O)(=O)c4cncc(Cl)c4)cc3[nH]2)c1N [Example 5-1-542, N-[2-[5-amino-1-[4-(2-fluorophenoxy)-2-methylphenyl]pyrazole-4-carbonyl]-5-fluoro-1H-indol-6-yl]-5-chloropyridine-3-sulfonamide] | 180 | 3.6 | 430 |
| Cc1cc(Oc2c(F)cccc2F)ncc1-n1ncc(C(=O)c2cc3cc(F)c(NS(=O)(=O)c4cncc(Cl)c4)cc3[nH]2)c1N [Example 5-1-543, N-[2-[5-amino-1-[6-(2,6-difluorophenoxy)-4-methylpyridin-3-yl]pyrazole-4-carbonyl]-5-fluoro-1H-indol-6-yl]-5-chloropyridine-3-sulfonamide] | 360 | 9.8 | 640 |
| Cc1cc(Oc2ccccc2F)ncc1-n1ncc(C(=O)c2cc3cc(F)c(NS(=O)(=O)c4cncc(Cl)c4)cc3[nH]2)c1N [Example 5-1-544, N-[2-[5-amino-1-[6-(2-fluorophenoxy)-4-methylpyridin-3-yl]pyrazole-4-carbonyl]-5-fluoro-1H-indol-6-yl]-5-chloropyridine-3-sulfonamide] | 330 | 8.4 | 680 |
| Cc1cc2cc(C(=O)c3cnn(-c4ccc(Oc5ccccc5F)cc4C)c3N)[nH]c2cc1NS(=O)(=O)c1cncc(F)c1 [Example 5-1-545, N-[2-[5-amino-1-[4-(2-fluorophenoxy)-2-methylphenyl]pyrazole-4-carbonyl]-5-methyl-1H-indol-6-yl]-5-fluoropyridine-3-sulfonamide] | 22 | 3.1 | 150 |
| Cc1cc2cc(C(=O)c3cnn(-c4cnc(Oc5c(F)cccc5F)cc4C)c3N)[nH]c2cc1NS(=O)(=O)c1cncc(F)c1 [Example 5-1-546, N-[2-[5-amino-1-[6-(2,6-difluorophenoxy)-4-methylpyridin-3-yl]pyrazole-4-carbonyl]-5-methyl-1H-indol-6-yl]-5-fluoropyridine-3-sulfonamide] | 78 | 6.1 | 680 |
| Cc1cc(Oc2ccccc2F)ccc1-n1ncc(C(=O)c2cc3cc(F)c(NS(=O)(=O)c4cncc(F)c4)cc3[nH]2)c1N [Example 5-1-547, N-[2-[5-amino-1-[4-(2-fluorophenoxy)-2-methylphenyl]pyrazole-4-carbonyl]-5-fluoro-1H-indol-6-yl]-5-fluoropyridine-3-sulfonamide] | 30 | 2.9 | 350 |
| Cc1cc(Oc2c(F)cccc2F)ncc1-n1ncc(C(=O)c2cc3cc(F)c(NS(=O)(=O)c4cncc(F)c4)cc3[nH]2)c1N [Example 5-1-548, N-[2-[5-amino-1-[6-(2,6-difluorophenoxy)-4-methylpyridin-3-yl]pyrazole-4-carbonyl]-5-fluoro-1H-indol-6-yl]-5-fluoropyridine-3-sulfonamide] | 78 | 7.6 | 640 |
| Cc1cc(Oc2ccccc2F)ncc1-n1ncc(C(=O)c2cc3cc(F)c(NS(=O)(=O)c4cncc(F)c4)cc3[nH]2)c1N [Example 5-1-549, N-[2-[5-amino-1-[6-(2-fluorophenoxy)-4-methylpyridin-3-yl]pyrazole-4-carbonyl]-5-fluoro-1H-indol-6-yl]-5-fluoropyridine-3-sulfonamide] | 80 | 7.7 | 740 |
| Cc1cc2cc(C(=O)c3cnn(-c4ccc(Oc5ccccc5F)cc4C)c3N)[nH]c2cc1NS(=O)(=O)c1cccc(F)c1 [Example 5-1-550, N-[2-[5-amino-1-[4-(2-fluorophenoxy)-2-methylphenyl]pyrazole-4-carbonyl]-5-methyl-1H-indol-6-yl]-3-fluorobenzenesulfonamide] | 72 | 5.1 | 490 |
